This note sets out measurements from PubChem BioAssay (NCI).

Among the test systems are SN12C renal; KM20L2 colon; SF-295 CNS; UO-31 renal; KM12 colon; MOLT-4 leukemia; IGROV1 ovarian; NCI-H522 lung; HOP-62 NSCLC; COLO 205 colon.
Test in all cases: NCI anticancer screen, dose series, 48 h

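How tested: cells in 96-well plates exposed to compound for 48 hours at five concentrations. GI50 marks 50% less growth. TGI marks complete inhibition of growth.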

Turning to `Cc1cc2c(C(C)C)c(O)c(O)c(C=Nc3ccccc3)c2c(O)c1-c1c(C)cc2c(C(C)C)c(O)c(O)c(C=Nc3ccccc3)c2c1O`, the TGI in the experiment with SN12C renal, in the experiment with KM20L2 colon, with SF-295 CNS, with UO-31 renal, in the experiment with KM12 colon and in the experiment on MOLT-4 leukemia was more than 100 µM throughout. Moreover, the TGI with IGROV1 ovarian, in the experiment with NCI-H522 lung, in the experiment on HOP-62 NSCLC and in the experiment on COLO 205 colon was more than 100 µM throughout.

On to `CC1=C/C(=C2/N=C(N(C)C)SS2)C(C)=N1`, for which the TGI with SN12C renal, in the experiment with KM20L2 colon, in the experiment on SF-295 CNS, in the experiment with UO-31 renal, in the experiment with KM12 colon and with MOLT-4 leukemia was more than 100 µM throughout. Further, the TGI with IGROV1 ovarian, in the experiment on NCI-H522 lung, in the experiment with HOP-62 NSCLC and with COLO 205 colon was more than 100 µM throughout.

In the case of `CCCCS(=O)CC(CO)NC(=O)/C=C/c1c(C)[nH]c(=O)[nH]c1=O` (stereo not drawn), the TGI came out at 49 µM in the experiment on SN12C renal; 56.8 µM in the experiment on KM20L2 colon; 38.8 µM with SF-295 CNS; 73.3 µM in the experiment on UO-31 renal; 49.7 µM with KM12 colon; 50 µM in the experiment with MOLT-4 leukemia. Further, the TGI in the experiment on IGROV1 ovarian is 35.4 µM; with NCI-H522 lung it was 21.4 µM; in the experiment with HOP-62 NSCLC, 45 µM; with COLO 205 colon, 53.4 µM.

As for `C[C@]12CCc3sc(-c4cccc(F)c4)nc3C1=CC[C@@H]1[C@@H]2CC[C@]2(C)C(=O)CC[C@@H]12`, the GI50 in the experiment with SN12C renal is 3.01 µM; with SF-295 CNS it was 1.59 µM; in the experiment with UO-31 renal, 1.61 µM; in the experiment on KM12 colon, 3.34 µM; in the experiment with MOLT-4 leukemia, 1690 nM; with IGROV1 ovarian, 2.09 µM. Also, the GI50 with NCI-H522 lung is 2400 nM; in the experiment on HOP-62 NSCLC it was 3.1 µM; with COLO 205 colon, 2.42 µM. The TGI with SN12C renal was more than 100 µM; with SF-295 CNS, 4.91 µM; in the experiment with UO-31 renal, 2.98 µM; with KM12 colon, 17.6 µM; with MOLT-4 leukemia, 7.89 µM; in the experiment on IGROV1 ovarian, 4.88 µM. Further, the values for the TGI in the experiment on NCI-H522 lung, with HOP-62 NSCLC and in the experiment on COLO 205 colon were 6.35 µM, 11.8 µM and 5.46 µM, respectively.

Consider `O=C1CCCN1CCCN=c1cc2n(-c3ccc(Cl)cc3)c3ccccc3nc-2cc1Nc1ccc(Cl)cc1`, for which the TGI in the experiment on SN12C renal was 43.4 µM; with KM20L2 colon, 11 µM; with SF-295 CNS it was 40.7 µM; in the experiment with UO-31 renal, 51.3 µM; in the experiment with KM12 colon, 28.7 µM; in the experiment with MOLT-4 leukemia it was 27 µM. Besides, the TGI stood at 24.9 µM in the experiment on IGROV1 ovarian, 16.6 µM in the experiment with NCI-H522 lung, 29.5 µM in the experiment on HOP-62 NSCLC and 2.83 µM in the experiment with COLO 205 colon.

For `O=c1c2c3c(sc2nc2n1N=C(c1ccc([N+](=O)[O-])cc1)CS2)CCCC3`, the TGI in the experiment on SN12C renal, in the experiment on SF-295 CNS, with UO-31 renal, in the experiment on KM12 colon, with MOLT-4 leukemia and with IGROV1 ovarian was more than 100 µM in each case. Besides, the TGI with NCI-H522 lung, in the experiment with HOP-62 NSCLC and in the experiment with COLO 205 colon was more than 100 µM each time.

In the case of `Cn1c(=O)c2nc(NCCO)cnc2n(C)c1=O`, the TGI with SN12C renal, in the experiment with KM20L2 colon, in the experiment with SF-295 CNS, in the experiment with UO-31 renal, in the experiment with KM12 colon and with MOLT-4 leukemia was more than 100 µM in each case. In addition, the TGI was more than 100 µM with IGROV1 ovarian, 46.4 µM in the experiment on NCI-H522 lung, more than 100 µM in the experiment with HOP-62 NSCLC and more than 100 µM in the experiment with COLO 205 colon.

As for `O=C(c1ccccc1)c1nn(-c2ccccc2)c2nc3nc(-c4ccccc4)cc(=O)n3nc12`, the GI50 was 22.7 µM with SN12C renal; 19.9 µM in the experiment on SF-295 CNS; 25.7 µM in the experiment on UO-31 renal; 28.3 µM in the experiment with KM12 colon; 21800 nM in the experiment with MOLT-4 leukemia; 25.6 µM with IGROV1 ovarian. Besides, the GI50 with NCI-H522 lung is 20600 nM; in the experiment with HOP-62 NSCLC, 38 µM; in the experiment on COLO 205 colon it was 26.8 µM. For the same molecule, the TGI in the experiment with SN12C renal was 53.2 µM; in the experiment on SF-295 CNS, 53 µM; with UO-31 renal it was more than 100 µM; with KM12 colon, 82.1 µM; in the experiment with MOLT-4 leukemia, 49.3 µM; in the experiment with IGROV1 ovarian, more than 100 µM. The TGI in the experiment on NCI-H522 lung is 58.5 µM; in the experiment on HOP-62 NSCLC, more than 100 µM; in the experiment on COLO 205 colon, 64.1 µM.

As for `CCc1c(C)c2ccc(OCC(=O)N=Nc3c(O)[nH]c4ccccc34)c(C)c2oc1=O`, the GI50 was more than 33.3 µM with UO-31 renal, 1150 nM in the experiment with MOLT-4 leukemia and 770 nM with NCI-H522 lung. The TGI was more than 33.3 µM in the experiment on UO-31 renal, more than 33.3 µM in the experiment on MOLT-4 leukemia and 1.81 µM with NCI-H522 lung.

`O=C1CSC(C(N=Nc2ccc(Cl)cc2)c2nc3ccccc3[nH]2)=N1` (stereo not drawn): the TGI in the experiment with SN12C renal was more than 100 µM; in the experiment on KM20L2 colon, more than 100 µM; in the experiment with SF-295 CNS, more than 100 µM; in the experiment on UO-31 renal, more than 100 µM; in the experiment on KM12 colon it was more than 100 µM; with MOLT-4 leukemia, 39.8 µM. The values for the TGI in the experiment on NCI-H522 lung, with HOP-62 NSCLC and with COLO 205 colon were 71.1 µM, more than 100 µM and more than 100 µM, respectively.

`NC(=O)SCC(=O)Nc1ccc2ncccc2c1`: the TGI is more than 100 µM in the experiment on SN12C renal; more than 100 µM in the experiment with SF-295 CNS; more than 100 µM with UO-31 renal; more than 100 µM in the experiment with KM12 colon; more than 100 µM with IGROV1 ovarian; 69.3 µM in the experiment with NCI-H522 lung. The TGI in the experiment on HOP-62 NSCLC and in the experiment with COLO 205 colon was more than 100 µM in each case.
